Laboratory results published in patent US5202315A, “Cephalosporin compounds” (Lucky, Ltd., priority 1989, dated 1993).
Converted amounts (≈) assume the structure as drawn. Like-named read-outs stand apart in the source and are kept apart here.

Tests used:
[1] = test system: Staphylococcus aureus methicillin resistant; experiment: Antibacterial activity against clinically isolated strains, MIC; type: cell-based; conditions: methicillin resistant, 7 clinical isolates, broth microdilution test; for MIC90: read-out: MIC 90%
[2] = In-vivo absorbency (plasma concentrations & pharmacokinetic parameters); set-up: species or system SD rat (male); conditions: plasma, SD male rat, iv 20 mg/kg, read-out: Plasma Conc.
[3] = test system: Staphylococcus aureus methicillin susceptible; experiment: Antibacterial activity against clinically isolated strains, MIC; type: cell-based; conditions: methicillin susceptible, 42 clinical isolates, broth microdilution test; for MIC90: read-out: MIC 90%
[4] = test system: Klebsiella pneumoniae; experiment: as above; type: cell-based; conditions: 10 clinical isolates, broth microdilution test; for MIC90: read-out: MIC 90%
[5] = test system: Pseudomonas aeruginosa; experiment: as above; type: cell-based
[6] = test system: Enterobacter cloacae ATCC 27508; experiment: Antibacterial activity, MIC; type: cell-based; conditions: ATCC27508, ATCC 27508, agar two-fold dilution, 37° C., 20 hours, read-out: MIC
Procedure, shortened: (§1)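 Agar two-fold dilution method: compound serially diluted two-fold in Mueller-Hinton agar, spotted with 2 μl of a 10^7 CFU/ml inoculum of each standard strain, then incubated at 37 °C for 20 h.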

[7] = test system: Salmonella typhimurium ATCC 14028; experiment: Antibacterial activity, MIC; type: cell-based; conditions: Salmonella enterica; ATCC 14028; agar two-fold dilution, 37° C., 20 hours; read-out: MIC
Procedure, shortened: as §1

[8] = test system: Pseudomonas aeruginosa ATCC 10145; experiment: Antibacterial activity, MIC; type: cell-based; conditions: ATCC10145, ATCC 10145, agar two-fold dilution, 37° C., 20 hours, read-out: MIC
Procedure, shortened: as §1

[9] = test system: Klebsiella pneumoniae ATCC 10031; experiment: Antibacterial activity, MIC; type: cell-based; conditions: ATCC10031, ATCC 10031, agar two-fold dilution, 37° C., 20 hours, read-out: MIC
Procedure, shortened: as §1

[10] = test system: Acinetobacter calcoaceticus ATCC 15473; experiment: Antibacterial activity, MIC; type: cell-based; conditions: ATCC15473, ATCC 15473, agar two-fold dilution, 37° C., 20 hours, read-out: MIC
Procedure, shortened: as §1

[11] = test system: Pseudomonas aeruginosa ATCC 27853; experiment: Antibacterial activity, MIC; type: cell-based; conditions: ATCC27853, ATCC 27853, agar two-fold dilution, 37° C., 20 hours, read-out: MIC
Procedure, shortened: as §1

[12] = test system: Escherichia coli ATCC 25922; experiment: Antibacterial activity, MIC; type: cell-based; conditions: ATCC25922, agar two-fold dilution, 37° C., 20 hours
Procedure, shortened: as §1

[13] = test system: Staphylococcus epidermidis ATCC 12228; experiment: Antibacterial activity, MIC; type: cell-based; conditions: ATCC12228, ATCC 12228, agar two-fold dilution, 37° C., 20 hours, read-out: MIC
Procedure, shortened: as §1

[14] = test system: Micrococcus luteus ATCC 9341; experiment: Antibacterial activity, MIC; type: cell-based; conditions: ATCC9341, ATCC 9341, agar two-fold dilution, 37° C., 20 hours, read-out: MIC
Procedure, shortened: as §1

[15] = test system: Citrobacter freundii ATCC 8090; experiment: Antibacterial activity, MIC; type: cell-based; conditions: ATCC8090, ATCC 8090, agar two-fold dilution, 37° C., 20 hours, read-out: MIC
Procedure, shortened: as §1

[16] = test system: Proteus mirabilis ATCC 25933; experiment: Antibacterial activity, MIC; type: cell-based; conditions: ATCC25933, ATCC 25933, agar two-fold dilution, 37° C., 20 hours, read-out: MIC
Procedure, shortened: as §1

[17] = test system: Bacillus megaterium ATCC 9885; experiment: Antibacterial activity, MIC; type: cell-based; conditions: Priestia megaterium, ATCC9885; ATCC 9885; agar two-fold dilution, 37° C., 20 hours; read-out: MIC
Procedure, shortened: as §1

[18] = test system: Escherichia coli ATCC 10536; experiment: Antibacterial activity, MIC; type: cell-based; conditions: ATCC10536, agar two-fold dilution, 37° C., 20 hours
Procedure, shortened: as §1

[19] = test system: Morganella morganii ATCC 8076h; experiment: Antibacterial activity, MIC; type: cell-based; conditions: ATCC8076H, agar two-fold dilution, 37° C., 20 hours
Procedure, shortened: as §1

[20] = test system: Shigella flexneri ATCC 11836; experiment: Antibacterial activity, MIC; type: cell-based; conditions: ATCC11836, agar two-fold dilution, 37° C., 20 hours
Procedure, shortened: as §1

[21] = test system: Enterobacter aerogenes ATCC 29751; experiment: Antibacterial activity, MIC; type: cell-based; conditions: Klebsiella aerogenes, ATCC29751; ATCC 29751; agar two-fold dilution, 37° C., 20 hours; read-out: MIC
Procedure, shortened: as §1

[22] = test system: Shigella sonnei ATCC 11060; experiment: Antibacterial activity, MIC; type: cell-based; conditions: ATCC11060, ATCC 11060, agar two-fold dilution, 37° C., 20 hours, read-out: MIC
Procedure, shortened: as §1

[23] = test system: Staphylococcus aureus ATCC 6538p; experiment: Antibacterial activity, MIC; type: cell-based; conditions: ATCC6538P, ATCC 6538p, agar two-fold dilution, 37° C., 20 hours, read-out: MIC
Procedure, shortened: as §1

[24] = test system: Pseudomonas aeruginosa ATCC 25619; experiment: Antibacterial activity, MIC; type: cell-based; conditions: ATCC25619, ATCC 25619, agar two-fold dilution, 37° C., 20 hours, read-out: MIC
Procedure, shortened: as §1

[25] = test system: Bacillus cereus ATCC 11778; experiment: Antibacterial activity, MIC; type: cell-based; conditions: ATCC11778, ATCC 11778, agar two-fold dilution, 37° C., 20 hours, read-out: MIC
Procedure, shortened: as §1

[26] = test system: Serratia marcescens ATCC 27117; experiment: Antibacterial activity, MIC; type: cell-based; conditions: ATCC27117, ATCC 27117, agar two-fold dilution, 37° C., 20 hours, read-out: MIC
Procedure, shortened: as §1

[27] = test system: Proteus vulgaris ATCC 6059; experiment: Antibacterial activity, MIC; type: cell-based; conditions: ATCC6059, ATCC 6059, agar two-fold dilution, 37° C., 20 hours, read-out: MIC
Procedure, shortened: as §1

[28] = test system: Providencia rettgeri ATCC 9250; experiment: Antibacterial activity, MIC; type: cell-based; conditions: ATCC9250, agar two-fold dilution, 37° C., 20 hours
Procedure, shortened: as §1

[29] = 54 clinical isolates, broth microdilution test

| Compound | MIC50 [1] [µg/mL] | MIC90 [1] [µg/mL] | concentration at 1 min [2] [ng/mL] | concentration at 2.5 min [2] [ng/mL] | concentration at 5 min [2] [ng/mL] | concentration at 10 min [2] [ng/mL] | concentration at 20 min [2] [ng/mL] | concentration at 40 min [2] [ng/mL] | MIC50 [3] [µg/mL] | MIC90 [3] [µg/mL] | MIC50 [4] [µg/mL] | MIC90 [4] [µg/mL] | MIC50 [5, 29] [µg/mL] | MIC [6] [µg/mL] | MIC [7] [µg/mL] | MIC [8] [µg/mL] | MIC [9] [µg/mL] | MIC [10] [µg/mL] | MIC [11] [µg/mL] | MIC [12] [µg/mL] | other results |
| --- | --- | --- | --- | --- | --- | --- | --- | --- | --- | --- | --- | --- | --- | --- | --- | --- | --- | --- | --- | --- | --- |
| CC(O/N=C(\C(=O)NC1C(=O)N2C(C(=O)[O-])=C(CSc3nc(N)cc(N)[n+]3C)CSC12)c1csc(N)n1)C(=O)O (centres unmarked) [Compound I-4] | > 32 | > 32 | 64000 | 42000 | 32000 | 14000 | 7300 | 4500 | 4 (≈ 6.56 µM) | 4 (≈ 6.56 µM) | 0.031 (≈ 0.0508 µM) | 0.13 (≈ 0.213 µM) | 4 (≈ 6.56 µM) | 0.016 (≈ 0.0262 µM) | 0.13 (≈ 0.213 µM) | 2 (≈ 3.28 µM) | 0.031 (≈ 0.0508 µM) | 4 (≈ 6.56 µM) | 1 (≈ 1.64 µM) | 0.031 (≈ 0.0508 µM) | MIC [1]: > 32 µg/mL; MIC90 [5]: 16 µg/mL (≈ 26.2 µM); MIC [13]: 2 µg/mL (≈ 3.28 µM); MIC [14]: 0.5 µg/mL (≈ 0.82 µM); MIC [15]: 0.063 µg/mL (≈ 0.103 µM); MIC [16]: 0.031 µg/mL (≈ 0.0508 µM); MIC [17]: 1 µg/mL (≈ 1.64 µM); MIC [18]: 0.063 µg/mL (≈ 0.103 µM); MIC [19]: ≤ 0.008 µg/mL; MIC [20]: 0.031 µg/mL (≈ 0.0508 µM); MIC [21]: 1 µg/mL (≈ 1.64 µM); MIC [22]: 0.031 µg/mL (≈ 0.0508 µM); MIC [23]: 4 µg/mL (≈ 6.56 µM); MIC [24]: 2 µg/mL (≈ 3.28 µM); MIC [25]: > 128 µg/mL; MIC [26]: 0.063 µg/mL (≈ 0.103 µM); MIC [27]: 0.031 µg/mL (≈ 0.0508 µM); MIC [28]: ≤ 0.008 µg/mL |
| CC[n+]1c(N)cc(N)nc1SCC1=C(C(=O)[O-])N2C(=O)C(NC(=O)/C(=N\OC(C)C(=O)O)c3csc(N)n3)C2SC1 (centres unmarked) [Compound I-5] | > 128 | > 128 | 134000 | 91000 | 72000 | 49000 | 29000 | 13000 | 4 (≈ 6.41 µM) | 4 (≈ 6.41 µM) | 0.063 (≈ 0.101 µM) | 0.25 (≈ 0.401 µM) | 4 (≈ 6.41 µM) | 0.016 (≈ 0.0257 µM) | 0.13 (≈ 0.208 µM) | 2 (≈ 3.21 µM) | 0.031 (≈ 0.0497 µM) | 4 (≈ 6.41 µM) | 1 (≈ 1.6 µM) | 0.063 (≈ 0.101 µM) | MIC90 ([5]; 54 clinical isolates, broth microdilution test, read-out: MIC 90%): 8 µg/mL (≈ 12.8 µM); MIC [13]: 1 µg/mL (≈ 1.6 µM); MIC [14]: 0.25 µg/mL (≈ 0.401 µM); MIC [15]: 0.063 µg/mL (≈ 0.101 µM); MIC [16]: 0.031 µg/mL (≈ 0.0497 µM); MIC [17]: 1 µg/mL (≈ 1.6 µM); MIC [18]: 0.063 µg/mL (≈ 0.101 µM); MIC [19]: ≤ 0.008 µg/mL; MIC [20]: 0.031 µg/mL (≈ 0.0497 µM); MIC [21]: 0.5 µg/mL (≈ 0.802 µM); MIC [22]: 0.031 µg/mL (≈ 0.0497 µM); MIC [23]: 2 µg/mL (≈ 3.21 µM); MIC [24]: 1 µg/mL (≈ 1.6 µM); MIC [25]: 128 µg/mL (≈ 205 µM); MIC [26]: 0.063 µg/mL (≈ 0.101 µM); MIC [27]: 0.031 µg/mL (≈ 0.0497 µM); MIC [28]: ≤ 0.008 µg/mL |
| C[n+]1c(N)cc(N)nc1SCC1=C(C(=O)[O-])N2C(=O)C(NC(=O)/C(=N\OCC(=O)O)c3csc(N)n3)C2SC1 (centres unmarked) [Compound I-7] | > 32 | > 32 | 128000 | 83000 | 59000 | 43000 | 29000 | 15000 | 4 (≈ 6.72 µM) | 4 (≈ 6.72 µM) | 0.016 (≈ 0.0269 µM) | 0.031 (≈ 0.052 µM) | 4 (≈ 6.72 µM) | ≤ 0.008 | 0.063 (≈ 0.106 µM) | 4 (≈ 6.72 µM) | 0.016 (≈ 0.0269 µM) | 4 (≈ 6.72 µM) | 2 (≈ 3.36 µM) | 0.016 (≈ 0.0269 µM) | MIC [1]: > 32 µg/mL; MIC90 [5]: 16 µg/mL (≈ 26.9 µM); MIC [13]: 1 µg/mL (≈ 1.68 µM); MIC [14]: 0.5 µg/mL (≈ 0.839 µM); MIC [15]: 0.031 µg/mL (≈ 0.052 µM); MIC [16]: 0.016 µg/mL (≈ 0.0269 µM); MIC [17]: 0.5 µg/mL (≈ 0.839 µM); MIC [18]: 0.016 µg/mL (≈ 0.0269 µM); MIC [19]: ≤ 0.008 µg/mL; MIC [20]: ≤ 0.008 µg/mL; MIC [21]: 0.5 µg/mL (≈ 0.839 µM); MIC [22]: 0.016 µg/mL (≈ 0.0269 µM); MIC [23]: 2 µg/mL (≈ 3.36 µM); MIC [24]: 2 µg/mL (≈ 3.36 µM); MIC [25]: 128 µg/mL (≈ 215 µM); MIC [26]: 0.016 µg/mL (≈ 0.0269 µM); MIC [27]: 0.016 µg/mL (≈ 0.0269 µM); MIC [28]: ≤ 0.008 µg/mL |
